Reference: patent publication US20110104805A1, “Pluripotent Stem Cells” (CENTOCOR ORTHO BIOTECH INC., priority 2009, published 2011)

Tests used:
AFD1 cells [1] = assay: Attachment / plating efficiency on surface modified plate 4 without feeder cells or adlayer; type: cell-based; settings: surface modified plate 4, MEF conditioned media
Experimental: The pluripotent stem cell line AFD1, was maintained in MEF conditioned media on Nunclon Delta™ plates treated with a 1:30 dilution of growth factor reduced MATRIGEL™ prior to study. Cells were dissociated from the surface for passage by 1 mg/ml dispase dissociation. AFD1 cells were then seeded onto untreated wells of surface modified plate 4 (6-well format). In parallel, AFD1 cells were also plated onto Nunclon Delta™ plates treated with 1:30 dilution of growth factor reduced MATRIGEL™ to provide as positive controls. In all treatments cells were maintained in MEF conditioned media. AFD1 cells seeded onto surface modified plate 4 did attach, however the attachment efficiency was much lower than on control plates (FIG. 11). […] Cells were thereafter maintained in a constant 10 μM Y-27632 concentration or a reduced 1 μM concentration of H1152-glycyl, respectively, with daily media change.

AFD1 cells [2] = assay: qRT-PCR gene expression after two passages on surface modified plate 4 with Rho kinase inhibitor; type: cell-based; settings: AFD1 passaged twice on modified surface 4 versus control plates
Experimental: Cells were passaged twice on surface modified plate 4 in the presence of either Y-27632 or H1152-glycyl and were tested for the expression of genes associated with pluripotency by qRT-PCR (FIG. 12). Expression of genes associated with and required for pluripotency (OCT4, NANOG, SOX2, TERT, and CRIPTO/TDGF) was maintained in AFD1 cells grown on modified surface 4 versus cells grown on control plates. […] This may have been due to increased expression of NANOG, which inhibits differentiation by suppressing expression of extra-embryonic ectoderm or trophoblast associated genes. Additionally, this decrease in expression of extra-embryonic ectoderm or trophoblast associated genes could occur through differential adhesion and proliferation of cells more pluripotent, and less differentiated, on modified surface 4 versus control plates.

| Compound | plating efficiency of the cells (AFD1 cells [1]; 3 μM for the first 24 hours in culture) | Expression of genes associated with and required for pluripotency (OCT4, NANOG, SOX2, TERT, and CRIPTO/TDGF) (AFD1 cells [2]) | relative expression of AFP, HAND2, and GATA2 (spontaneous differentiation genes) (AFD1 cells [2]) | plating efficiency of the cells (AFD1 cells [1]; 10 μM for the first 24 hours in culture) |
| --- | --- | --- | --- | --- |
| Cc1cncc2cccc(S(=O)(=O)N3CCCN(C(=O)CN)C[C@@H]3C)c12.Cl.Cl [Clone H1152-glycyl, (S)-(+)-4-Glycyl-2-methyl-1-[(4-methyl-5-isoquinolinyl)sulfonyl]hexahydro-1H-1,4-diazepine dihydrochloride] | significantly increased | maintained | decreased significantly | – |
| C[C@@H](N)[C@H]1CC[C@H](C(=O)Nc2ccncc2)CC1 [Clone Y-27632] | – | maintained | decreased significantly | significantly increased |
